Source: patent publication US10710978B2, “STK4 inhibitors for treatment of hematologic malignancies” (Dana-Farber Cancer Institute, Inc., priority 2015, dated 2020)
Like-named read-outs stand apart in the source and are kept apart here.

Legend:
Experiment in all cases: KiNativ assay
Format in all cases: binding
[1] = system: ABL, ARG; conditions: H929 live cell; for % inhibition: 10 μM, range class
Procedure: (§1) Biochemical IC50s of the compounds of the present disclosure against various kinases were measured in a KiNativ assay. Compounds were screened in duplicate at 10 μM in H929 live cell. IC50 was measured via Mass spectroscopy (MS).

[2] = molecular target: ATR (Homo sapiens (Human), UniProt Q13535); conditions: H929 live cell
Procedure: as §1

[3] = molecular target: CDK5 (Homo sapiens (Human), UniProt Q00535); conditions: H929 live cell
Procedure: as §1

[4] = molecular target: CK1a (Homo sapiens (Human), UniProt P48729); conditions: H929 live cell
Procedure: as §1

[5] = molecular target: CLK2 (Homo sapiens (Human), UniProt P49760); conditions: H929 live cell
Procedure: as §1

[6] = molecular target: CSK (Homo sapiens (Human), UniProt P41240); conditions: H929 live cell
Procedure: as §1

[7] = molecular target: CaMK1d (Homo sapiens (Human), UniProt Q8IU85); conditions: H929 live cell
Procedure: as §1

[8] = system: CaMK2a, CaMK2b, CaMK2d, CaMK2g; conditions: H929 live cell; for % inhibition: 10 μM, range class
Procedure: as §1

[9] = molecular target: CaMK2g (Homo sapiens (Human), UniProt Q13555); conditions: H929 live cell
Procedure: as §1

[10] = molecular target: Erk1 (Homo sapiens (Human), UniProt P27361); conditions: H929 live cell
Procedure: as §1

[11] = molecular target: Erk2 (Homo sapiens (Human), UniProt P28482); conditions: H929 live cell
Procedure: as §1

[12] = molecular target: GSK3A (Homo sapiens (Human), UniProt P49840); conditions: H929 live cell
Procedure: as §1

[13] = molecular target: IKKb (Homo sapiens (Human), UniProt O14920); conditions: H929 live cell
Procedure: as §1

[14] = molecular target: ILK (Homo sapiens (Human), UniProt Q13418); conditions: H929 live cell
Procedure: as §1

[15] = molecular target: IRAK4 (Homo sapiens (Human), UniProt Q9NWZ3); conditions: H929 live cell
Procedure: as §1

[16] = molecular target: MAP2K6 (Homo sapiens (Human), UniProt P52564); conditions: H929 live cell
Procedure: as §1

[17] = molecular target: MARK2 (Homo sapiens (Human), UniProt Q7KZI7); conditions: H929 live cell
Procedure: as §1

[18] = molecular target: MARK3 (Homo sapiens (Human), UniProt P27448); conditions: H929 live cell
Procedure: as §1

[19] = molecular target: MAST3 (Homo sapiens (Human), UniProt O60307); conditions: H929 live cell
Procedure: as §1

[20] = molecular target: MLK3 (Homo sapiens (Human), UniProt Q16584); conditions: H929 live cell
Procedure: as §1

[21] = molecular target: NDR1 (Homo sapiens (Human), UniProt Q15208); conditions: H929 live cell
Procedure: as §1

[22] = molecular target: NEK1 (Homo sapiens (Human), UniProt Q96PY6); conditions: H929 live cell
Procedure: as §1

[23] = molecular target: NEK8 (Homo sapiens (Human), UniProt Q86SG6); conditions: H929 live cell
Procedure: as §1

[24] = molecular target: PI4KB (Homo sapiens (Human), UniProt Q9UBF8); conditions: H929 live cell
Procedure: as §1

[25] = molecular target: PIK3C3 (Homo sapiens (Human), UniProt Q8NEB9); conditions: H929 live cell
Procedure: as §1

[26] = molecular target: PIK3CG (Homo sapiens (Human), UniProt P48736); conditions: H929 live cell
Procedure: as §1

[27] = system: RSK1 domain1, RSK2 domain1, RSK3 domain1; conditions: H929 live cell; for % inhibition: 10 μM, range class
Procedure: as §1

[28] = molecular target: RSK2 domain2 (Homo sapiens (Human), UniProt P51812); conditions: H929 live cell
Procedure: as §1

[29] = molecular target: SLK (Homo sapiens (Human), UniProt Q9H2G2); conditions: H929 live cell
Procedure: as §1

[30] = molecular target: SRPK1 (Homo sapiens (Human), UniProt Q96SB4); conditions: H929 live cell
Procedure: as §1

[31] = molecular target: STLK3 (Homo sapiens (Human), UniProt Q9UEW8); conditions: H929 live cell
Procedure: as §1

[32] = system: TAO1, TAO3; conditions: H929 live cell; for % inhibition: 10 μM, range class
Procedure: as §1

[33] = system: p38d, p38g; conditions: H929 live cell; for % inhibition: 10 μM, range class
Procedure: as §1

[34] = range class, read-out: % inhibition

Chain of RSK2 domain2 (P51812 whole entry, the tested form may be a part): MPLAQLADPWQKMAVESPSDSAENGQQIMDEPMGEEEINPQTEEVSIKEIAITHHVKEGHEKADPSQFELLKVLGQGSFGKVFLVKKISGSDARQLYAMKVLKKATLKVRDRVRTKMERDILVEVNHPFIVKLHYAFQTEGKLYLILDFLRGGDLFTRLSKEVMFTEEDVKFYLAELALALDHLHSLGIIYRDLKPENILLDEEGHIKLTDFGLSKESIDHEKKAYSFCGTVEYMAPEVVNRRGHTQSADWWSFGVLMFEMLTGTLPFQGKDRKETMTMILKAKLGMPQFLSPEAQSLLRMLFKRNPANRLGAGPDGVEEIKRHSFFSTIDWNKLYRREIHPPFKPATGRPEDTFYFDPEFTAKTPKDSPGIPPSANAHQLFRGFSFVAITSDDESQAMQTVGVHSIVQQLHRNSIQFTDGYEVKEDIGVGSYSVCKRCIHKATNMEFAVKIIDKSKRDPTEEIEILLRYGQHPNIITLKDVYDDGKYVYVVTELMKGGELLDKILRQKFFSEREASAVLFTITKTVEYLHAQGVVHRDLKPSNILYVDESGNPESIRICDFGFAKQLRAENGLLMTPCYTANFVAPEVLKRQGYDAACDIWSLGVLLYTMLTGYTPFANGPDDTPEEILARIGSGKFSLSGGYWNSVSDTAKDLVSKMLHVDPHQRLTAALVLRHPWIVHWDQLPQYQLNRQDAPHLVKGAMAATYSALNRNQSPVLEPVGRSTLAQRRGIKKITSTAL
Chain of NDR1 (Q15208 whole entry): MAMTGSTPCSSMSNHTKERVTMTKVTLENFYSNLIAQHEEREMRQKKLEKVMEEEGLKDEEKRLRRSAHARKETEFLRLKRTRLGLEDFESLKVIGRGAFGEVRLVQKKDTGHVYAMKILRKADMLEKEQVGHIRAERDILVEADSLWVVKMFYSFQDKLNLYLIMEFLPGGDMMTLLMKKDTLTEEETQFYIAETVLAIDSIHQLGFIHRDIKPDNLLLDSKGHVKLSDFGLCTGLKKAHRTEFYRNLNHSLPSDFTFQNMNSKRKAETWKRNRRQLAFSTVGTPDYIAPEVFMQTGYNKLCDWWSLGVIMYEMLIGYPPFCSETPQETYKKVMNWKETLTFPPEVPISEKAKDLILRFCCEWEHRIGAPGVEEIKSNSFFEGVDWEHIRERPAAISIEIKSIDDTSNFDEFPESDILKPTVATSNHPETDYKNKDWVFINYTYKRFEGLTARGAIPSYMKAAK
Chain of CaMK1d (Q8IU85 whole entry): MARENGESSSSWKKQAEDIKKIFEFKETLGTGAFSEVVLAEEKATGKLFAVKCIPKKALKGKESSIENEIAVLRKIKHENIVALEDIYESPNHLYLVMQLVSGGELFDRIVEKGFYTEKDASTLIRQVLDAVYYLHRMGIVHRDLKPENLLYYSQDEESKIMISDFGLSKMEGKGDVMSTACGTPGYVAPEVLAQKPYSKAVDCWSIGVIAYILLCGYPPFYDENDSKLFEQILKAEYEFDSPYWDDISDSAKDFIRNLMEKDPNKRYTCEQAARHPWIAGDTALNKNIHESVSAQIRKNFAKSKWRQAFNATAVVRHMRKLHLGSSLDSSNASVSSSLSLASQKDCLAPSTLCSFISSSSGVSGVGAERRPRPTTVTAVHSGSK
Chain of ATR (Q13535 whole entry): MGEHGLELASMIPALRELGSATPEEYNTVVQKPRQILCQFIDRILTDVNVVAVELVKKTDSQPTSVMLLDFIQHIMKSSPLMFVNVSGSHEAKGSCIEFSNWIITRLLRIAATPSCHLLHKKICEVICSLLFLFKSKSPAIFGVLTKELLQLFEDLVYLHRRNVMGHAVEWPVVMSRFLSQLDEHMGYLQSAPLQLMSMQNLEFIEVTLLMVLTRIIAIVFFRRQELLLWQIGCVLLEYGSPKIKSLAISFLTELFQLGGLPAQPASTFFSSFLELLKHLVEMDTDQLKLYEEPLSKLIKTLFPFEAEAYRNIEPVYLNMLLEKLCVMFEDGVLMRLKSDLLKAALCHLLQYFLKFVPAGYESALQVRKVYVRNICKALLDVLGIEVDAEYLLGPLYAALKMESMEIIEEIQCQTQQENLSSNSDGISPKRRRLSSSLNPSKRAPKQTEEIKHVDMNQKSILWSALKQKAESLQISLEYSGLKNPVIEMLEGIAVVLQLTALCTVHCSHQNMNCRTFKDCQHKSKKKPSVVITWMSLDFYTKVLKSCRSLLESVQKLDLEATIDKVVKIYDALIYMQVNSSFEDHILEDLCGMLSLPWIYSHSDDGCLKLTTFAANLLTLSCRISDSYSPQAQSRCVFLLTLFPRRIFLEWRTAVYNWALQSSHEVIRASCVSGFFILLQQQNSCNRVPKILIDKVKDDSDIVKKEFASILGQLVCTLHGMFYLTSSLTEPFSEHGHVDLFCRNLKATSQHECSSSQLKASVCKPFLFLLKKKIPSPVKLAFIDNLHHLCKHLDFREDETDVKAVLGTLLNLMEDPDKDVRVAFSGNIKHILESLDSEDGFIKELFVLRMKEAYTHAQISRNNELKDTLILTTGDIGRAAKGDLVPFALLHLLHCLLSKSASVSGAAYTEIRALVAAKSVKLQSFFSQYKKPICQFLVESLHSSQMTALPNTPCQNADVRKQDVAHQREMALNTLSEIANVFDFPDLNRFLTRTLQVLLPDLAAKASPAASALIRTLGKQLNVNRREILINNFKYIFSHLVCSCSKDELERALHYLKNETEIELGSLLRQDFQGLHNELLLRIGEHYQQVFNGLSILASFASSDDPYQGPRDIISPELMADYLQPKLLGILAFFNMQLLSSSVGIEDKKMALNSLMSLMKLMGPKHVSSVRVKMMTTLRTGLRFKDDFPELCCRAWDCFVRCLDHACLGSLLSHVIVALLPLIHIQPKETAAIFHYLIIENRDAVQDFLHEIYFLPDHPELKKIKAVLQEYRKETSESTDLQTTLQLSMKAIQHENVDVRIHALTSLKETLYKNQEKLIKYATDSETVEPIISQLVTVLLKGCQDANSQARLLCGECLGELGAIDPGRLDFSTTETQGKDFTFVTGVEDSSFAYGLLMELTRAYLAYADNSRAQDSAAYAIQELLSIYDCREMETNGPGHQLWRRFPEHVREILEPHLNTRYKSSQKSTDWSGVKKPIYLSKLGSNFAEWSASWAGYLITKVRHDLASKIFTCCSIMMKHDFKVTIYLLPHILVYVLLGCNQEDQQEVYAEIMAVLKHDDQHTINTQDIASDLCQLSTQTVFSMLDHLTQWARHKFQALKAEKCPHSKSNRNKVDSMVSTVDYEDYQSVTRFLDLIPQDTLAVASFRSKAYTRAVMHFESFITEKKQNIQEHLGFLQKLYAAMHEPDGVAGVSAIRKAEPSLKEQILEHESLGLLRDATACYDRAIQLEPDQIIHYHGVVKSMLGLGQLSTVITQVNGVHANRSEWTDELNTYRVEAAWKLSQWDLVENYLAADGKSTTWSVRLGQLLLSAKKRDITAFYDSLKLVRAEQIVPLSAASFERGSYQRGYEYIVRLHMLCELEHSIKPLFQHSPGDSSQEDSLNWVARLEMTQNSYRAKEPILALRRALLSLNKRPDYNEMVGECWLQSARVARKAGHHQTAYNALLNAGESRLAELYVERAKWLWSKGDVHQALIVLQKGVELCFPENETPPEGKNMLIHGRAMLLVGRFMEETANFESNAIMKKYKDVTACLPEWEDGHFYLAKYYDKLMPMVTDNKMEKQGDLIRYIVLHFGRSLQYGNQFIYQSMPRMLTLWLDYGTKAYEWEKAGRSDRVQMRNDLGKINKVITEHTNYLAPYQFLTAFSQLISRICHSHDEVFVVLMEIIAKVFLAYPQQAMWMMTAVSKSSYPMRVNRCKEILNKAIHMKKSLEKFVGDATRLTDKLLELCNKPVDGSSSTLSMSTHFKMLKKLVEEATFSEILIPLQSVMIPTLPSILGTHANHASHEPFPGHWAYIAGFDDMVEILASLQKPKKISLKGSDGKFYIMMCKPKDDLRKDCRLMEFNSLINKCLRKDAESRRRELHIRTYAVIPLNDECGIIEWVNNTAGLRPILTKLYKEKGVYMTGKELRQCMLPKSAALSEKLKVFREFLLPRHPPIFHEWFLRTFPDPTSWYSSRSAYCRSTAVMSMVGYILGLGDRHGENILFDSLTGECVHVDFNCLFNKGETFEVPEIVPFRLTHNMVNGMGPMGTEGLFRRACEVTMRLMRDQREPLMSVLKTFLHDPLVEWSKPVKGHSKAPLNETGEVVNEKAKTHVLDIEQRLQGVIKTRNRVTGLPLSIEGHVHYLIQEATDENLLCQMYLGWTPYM
Chain of ATR (Q8WXE1 whole entry partner): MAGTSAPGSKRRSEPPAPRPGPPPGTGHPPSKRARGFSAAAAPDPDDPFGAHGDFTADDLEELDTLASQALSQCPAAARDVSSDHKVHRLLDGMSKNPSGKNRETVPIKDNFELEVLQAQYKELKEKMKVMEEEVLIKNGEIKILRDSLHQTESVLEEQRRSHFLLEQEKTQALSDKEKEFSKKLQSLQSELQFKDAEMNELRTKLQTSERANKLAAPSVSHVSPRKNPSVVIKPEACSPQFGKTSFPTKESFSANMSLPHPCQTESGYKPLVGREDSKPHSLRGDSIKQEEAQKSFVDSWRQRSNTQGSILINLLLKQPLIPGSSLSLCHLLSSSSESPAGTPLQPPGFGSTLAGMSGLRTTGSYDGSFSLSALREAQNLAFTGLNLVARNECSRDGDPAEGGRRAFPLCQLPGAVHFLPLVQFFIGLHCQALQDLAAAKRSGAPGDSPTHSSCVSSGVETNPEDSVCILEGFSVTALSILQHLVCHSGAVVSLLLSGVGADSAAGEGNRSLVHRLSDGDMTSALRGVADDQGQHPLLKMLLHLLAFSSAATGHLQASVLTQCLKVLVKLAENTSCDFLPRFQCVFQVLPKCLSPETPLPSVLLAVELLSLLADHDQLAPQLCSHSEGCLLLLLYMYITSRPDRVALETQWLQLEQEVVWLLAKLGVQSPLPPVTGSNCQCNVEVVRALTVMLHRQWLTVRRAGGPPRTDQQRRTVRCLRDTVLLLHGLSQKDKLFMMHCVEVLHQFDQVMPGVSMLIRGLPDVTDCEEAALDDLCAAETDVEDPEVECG

Structure (SMILES): Nc1ncc(-c2ccc(NS(=O)(=O)C3CC3)cc2F)cc1-c1ccc2c(c1)CCNC2=O [Compound I-51, N-(4-(6-amino-5-(1-oxo-1,2,3,4-tetrahydroisoquinolin-6-yl)pyridin-3-yl)-3-fluorophenyl) cyclopropanesulfonamide]
- % inhibition [1]: 0.0%
- inhibition (10 μM) [1]: −3.0%
- inhibition at 10 µM [2, 34]: 0%
- inhibition at 10 µM ([2]; read-out: inhibition (10 μM)): 15%
- inhibition at 10 µM [3, 34]: 35 to 40%
- inhibition at 10 µM ([3]; read-out: inhibition (10 μM)): 37.2%
- inhibition at 10 µM [4, 34]: 0%
- inhibition at 10 µM ([4]; read-out: inhibition (10 μM)): -34.7%
- inhibition at 10 µM [5, 34]: 50 to 75%
- inhibition at 10 µM ([5]; read-out:): 65.3%
- inhibition at 10 µM [6, 34]: 0%
- inhibition at 10 µM ([6]; read-out: inhibition (10 μM)): 6.9%
- inhibition at 10 µM [7, 34]: 0%
- inhibition at 10 µM ([7]; read-out: inhibition (10 μM)): -1.7%
- % inhibition [8]: 0.0%
- inhibition (10 μM) [8]: 19.2%
- inhibition at 10 µM [9, 34]: 0%
- inhibition at 10 µM ([9]; read-out: inhibition (10 μM)): -6.4%
- inhibition at 10 µM [10, 34]: 0%
- inhibition at 10 µM ([10]; read-out: inhibition (10 μM)): 29.2%
- inhibition at 10 µM [11, 34]: 0%
- inhibition at 10 µM ([11]; read-out: inhibition (10 μM)): 31.8%
- inhibition at 10 µM [12, 34]: 75 to 90%
- inhibition at 10 µM ([12]; read-out: inhibition (10 μM)): 85.2%
- inhibition at 10 µM [13, 34]: 0%
- inhibition at 10 µM ([13]; read-out: inhibition (10 μM)): -19.5%
- inhibition at 10 µM [14, 34]: 0%
- inhibition at 10 µM ([14]; read-out: inhibition (10 μM)): -31.3%
- inhibition at 10 µM [15, 34]: 0%
- inhibition at 10 µM ([15]; read-out: inhibition (10 μM)): 16.4%
- inhibition at 10 µM [16, 34]: 0%
- inhibition at 10 µM ([16]; read-out: inhibition (10 μM)): -3.5%
- inhibition at 10 µM [17, 34]: 0%
- inhibition at 10 µM ([17]; read-out: inhibition (10 μM)): 24.6%
- inhibition at 10 µM [18, 34]: 0%
- inhibition at 10 µM ([18]; read-out: inhibition (10 μM)): 4.8%
- inhibition at 10 µM [19, 34]: 0%
- inhibition at 10 µM ([19]; read-out: inhibition (10 μM)): 7%
- inhibition at 10 µM [20, 34]: 35 to 40%
- inhibition at 10 µM ([20]; read-out: inhibition (10 μM)): 42.3%
- inhibition at 10 µM [21, 34]: 0%
- inhibition at 10 µM ([21]; read-out: inhibition (10 μM)): 16.8%
- inhibition at 10 µM [22, 34]: 0%
- inhibition at 10 µM ([22]; read-out: inhibition (10 μM)): 30.2%
- inhibition at 10 µM [23, 34]: 0%
- inhibition at 10 µM ([23]; read-out: inhibition (10 μM)): -8.1%
- inhibition at 10 µM [24, 34]: 0%
- inhibition at 10 µM ([24]; read-out: inhibition (10 μM)): 13%
- inhibition at 10 µM [25, 34]: 0%
- inhibition at 10 µM ([25]; read-out: inhibition (10 μM)): -13.2%
- inhibition at 10 µM [26, 34]: 0%
- inhibition at 10 µM ([26]; read-out: inhibition (10 μM)): -146%
- % inhibition [27]: 0.0%
- inhibition (10 μM) [27]: 25.8%
- inhibition at 10 µM [28, 34]: 0%
- inhibition at 10 µM ([28]; read-out: inhibition (10 μM)): 9.9%
- inhibition at 10 µM [29, 34]: 75 to 90%
- inhibition at 10 µM ([29]; read-out: inhibition (10 μM)): 85.6%
- inhibition at 10 µM [30, 34]: 0%
- inhibition at 10 µM ([30]; read-out: inhibition (10 μM)): -11.5%
- inhibition at 10 µM [31, 34]: 0%
- inhibition at 10 µM ([31]; read-out: inhibition (10 μM)): -5%
- % inhibition [32]: 75-90%
- inhibition (10 μM) [32]: 80.4%
- % inhibition [33]: 0.0%
- inhibition (10 μM) [33]: 2.3%

Structure (SMILES): Nc1ncc(-c2ccc(NS(=O)(=O)C3CC3)cc2OC2CCCCC2)cc1-c1ccc2c(c1)CCNC2=O [Compound I-65, N-(4-(6-amino-5-(1-oxo-1,2,3,4-tetrahydroisoquinolin-6-yl)pyridin-3-yl)-3-(cyclohexyloxy)phenyl) cyclopropanesulfonamide]
- % inhibition [1]: 0.0%
- inhibition (10 μM) [1]: −2.8%
- inhibition at 10 µM [2, 34]: 0%
- inhibition at 10 µM ([2]; read-out: inhibition (10 μM)): 28.1%
- inhibition at 10 µM [3, 34]: 0%
- inhibition at 10 µM ([3]; read-out: inhibition (10 μM)): 4.9%
- inhibition at 10 µM [4, 34]: 0%
- inhibition at 10 µM ([4]; read-out: inhibition (10 μM)): -65.1%
- inhibition at 10 µM [5, 34]: 50 to 75%
- inhibition at 10 µM ([5]; read-out:): 69.4%
- inhibition at 10 µM [6, 34]: 0%
- inhibition at 10 µM ([6]; read-out: inhibition (10 μM)): 0.1%
- inhibition at 10 µM [7, 34]: 0%
- inhibition at 10 µM ([7]; read-out: inhibition (10 μM)): 0.4%
- % inhibition [8]: 0.0%
- inhibition (10 μM) [8]: 12.8%
- inhibition at 10 µM [9, 34]: 0%
- inhibition at 10 µM ([9]; read-out: inhibition (10 μM)): -12%
- inhibition at 10 µM [10, 34]: 0%
- inhibition at 10 µM ([10]; read-out: inhibition (10 μM)): -30.7%
- inhibition at 10 µM [11, 34]: 0%
- inhibition at 10 µM ([11]; read-out: inhibition (10 μM)): -29.6%
- inhibition at 10 µM [12, 34]: 75 to 90%
- inhibition at 10 µM ([12]; read-out: inhibition (10 μM)): 86%
- inhibition at 10 µM [13, 34]: 0%
- inhibition at 10 µM ([13]; read-out: inhibition (10 μM)): -36%
- inhibition at 10 µM [14, 34]: 0%
- inhibition at 10 µM ([14]; read-out: inhibition (10 μM)): -35%
- inhibition at 10 µM [15, 34]: 0%
- inhibition at 10 µM ([15]; read-out: inhibition (10 μM)): 32.9%
- inhibition at 10 µM [16, 34]: 0%
- inhibition at 10 µM ([16]; read-out: inhibition (10 μM)): -15%
- inhibition at 10 µM [17, 34]: 0%
- inhibition at 10 µM ([17]; read-out: inhibition (10 μM)): -45.1%
- inhibition at 10 µM [18, 34]: 0%
- inhibition at 10 µM ([18]; read-out: inhibition (10 μM)): -22.7%
- inhibition at 10 µM [19, 34]: 0%
- inhibition at 10 µM ([19]; read-out: inhibition (10 μM)): -7.5%
- inhibition at 10 µM [20, 34]: 75 to 90%
- inhibition at 10 µM ([20]; read-out: inhibition (10 μM)): 82.7%
- inhibition at 10 µM [21, 34]: 0%
- inhibition at 10 µM ([21]; read-out: inhibition (10 μM)): -14.5%
- inhibition at 10 µM [22, 34]: 0%
- inhibition at 10 µM ([22]; read-out: inhibition (10 μM)): 9.3%
- inhibition at 10 µM [23, 34]: 0%
- inhibition at 10 µM ([23]; read-out: inhibition (10 μM)): -1.7%
- inhibition at 10 µM [24, 34]: 0%
- inhibition at 10 µM ([24]; read-out: inhibition (10 μM)): 8.6%
- inhibition at 10 µM [25, 34]: 0%
- inhibition at 10 µM ([25]; read-out: inhibition (10 μM)): -15%
- inhibition at 10 µM [26, 34]: 0%
- inhibition at 10 µM ([26]; read-out: inhibition (10 μM)): -64%
- % inhibition [27]: 50-75%
- inhibition (10 μM) [27]: 68.4%
- inhibition at 10 µM [28, 34]: 0%
- inhibition at 10 µM ([28]; read-out: inhibition (10 μM)): 7.2%
- inhibition at 10 µM [29, 34]: > 90%
- inhibition at 10 µM ([29]; read-out: inhibition (10 μM)): 97.8%
- inhibition at 10 µM [30, 34]: 0%
- inhibition at 10 µM ([30]; read-out: inhibition (10 μM)): -25.4%
- inhibition at 10 µM [31, 34]: 0%
- inhibition at 10 µM ([31]; read-out: inhibition (10 μM)): 31.4%
- % inhibition [32]: 0.0%
- inhibition (10 μM) [32]: 14.4%
- % inhibition [33]: 0.0%
- inhibition (10 μM) [33]: −8.5%
